# Laboratory results: patent publication US8147838B2, “Peptide” (priority 2005, dated 2012)
# No end group written: not given here.
# Molecular target: MHC class I allele A*0101 (A1) (Homo sapiens, UniProt P04439, A114D/A174V/A182V/D101N/D185E/E176A/E190D/L180R/Q94H/R68K/S129P/T187R/V100A/V91M/W191G)
# Assay: iScore multi-parametric analysis, A*0101
# Type: binding
# Conditions: level of binding: >0.5, 0.25-0.5, <0.25
# Protocol: (§1) Finally, multiparametric analysis is performed on the results from these assays and an iScore is generated. The iScore represents a measure of the overall quality of peptide-MHC binding, enabling candidate peptides to be ranked in order of binding quality and allowing rational prioritisation of peptides for functional cellular follow-up studies.
# (§2) As part of the validation of the iTopia system, a panel of overlapping peptides derived from the CMV pp 65 protein were used and their binding properties for the A*0201 allele analysed. A number of T cell epitopes restricted by HLA A*0201 had already been identified (by more conventional methodologies) by other researchers for this protein. In the iTopia study, it was reported that an iScore of: >0.5 represented “good quality binding”; between 0.25 and 0.5 represented “medium quality binding”; and <0.25 represented “poor quality binding”. Six of the 20 peptides which gave a “good” iScore (>0.5) for A*0201, represented previously characterised CMV pp 65 A*0201 epitopes.
# (§3) Each MHC class I allele has different binding properties and affinities for peptides which they bind. Therefore, information obtained with HLA A*0201 in which peptides are ranked as good, medium or poor binders using >0.5, 0.25-0.5 and <0.25 as thresholds is not necessarily transferable between alleles. Also, different proteins are likely to have distinct immunogenic profiles and the affinities between peptides and MHC class I molecules will be different between proteins. This may be particularly relevant in the case of self-antigens where immunogenicity is likely to be lower than in foreign proteins.
# (§4) Multi-parametric analysis permits the integration of half-life and ED50 parameters in an integrated iScore. This reflects the capability of a peptide to reconstitute with MHC molecules in a stable complex, defining its overall level of binding i.e. the iScore value represents the overall quality of peptide-MHC binding and is used to rank candidate peptides as an indicator of functional relevance. The lead candidate epitopes for each allele are selected for cellular functional analysis to confirm their biological relevance.
# (§5) The changes in gradient of the graphs in FIGS. 7 to 10 are indicated by a line which delineates the populations of iScores forming the basis of discrimination for further functional studies.
row,"iScore, MHC Class I Molecule A*0101",Sequence
1,0,LVELILNHI [Peptide 88]
2,0,LVLLGWVSS [Peptide 12]
3,0,LYLPRDVLA [Peptide 112]
4,0,MHNIRDACR [Peptide 193]
5,0,MVTWLKETE [Peptide 153]
6,0,NQLAVLPAG [Peptide 51]
7,0,NRKGIKKWM [Peptide 189]
8,0,NRVLLELNS [Peptide 166]
9,0,"PLPDQCPAL [Peptide 29, PLPDQCPAL]"
10,0,"PPLAELAAL [Peptide 58, PPLAELAAL]"
11,0,PPSLQTSYV [Peptide 175]
12,0,QNRSFEGMV [Peptide 96]
13,0.027,QTSYVFLGI [Peptide 177]
14,0,RALQGLRRL [Peptide 104]
15,0,RDACRDHME [Peptide 195]
16,0,RGPAAGDGR [Peptide 4]
17,0,RHLDLSNNS [Peptide 119]
18,0,RLDEVRAGA [Peptide 65]
19,0,RNLTHLESL [Peptide 128]
20,0,RSFEGMVVA [Peptide 97]

row,"iScore, MHC Class I Molecule A*0101",Sequence
1,0,SASSFSSSA [Peptide 19]
2,0,SLQTSYVFL [Peptide 176]
3,0,SLRHLDLSN [Peptide 118]
4,0,SLVSLTYVS [Peptide 123]
5,0,SNASVSAPS [Peptide 83]
6,0,SNHFLYLPR [Peptide 110]
7,0,SPLVELILN [Peptide 87]
8,0,SPTSSASSF [Peptide 17]
9,0,SSAPFLASA [Peptide 22]
10,0,SSFSSSAPF [Peptide 20]
11,0,SYVFLGIVL [Peptide 178]
12,0,TLAELQGLP [Peptide 139]
13,0,TSSASSFSS [Peptide 18]
14,0,TWLKETEVV [Peptide 154]
15,0,VFLDNNPWV [Peptide 145]
16,0,"VFLGIVLAL [Peptide 179, VFLGIVLAL]"
17,0,VLAQLPSLR [Peptide 115]
18,0,VLLELNSAD [Peptide 167]
19,0,VLPAGAFAR [Peptide 53]
20,0,VLYLNRKGI [Peptide 187]

# Molecular target: MHC class I allele A*0201 (A2) (Homo sapiens, UniProt P04439, D140Y/D185E/D98H/E176V/E277Q/G131W/G231S/I119V/I121R/I166T/I218V/L300P/L318F/N151K/N90K/P208A/P217A/Q86G/Q94H/R138H/R169H/T345S)
# Assay: iScore multi-parametric analysis, A*0201
# Type: binding
# Conditions: level of binding: >0.5, 0.25-0.5, <0.25
# Protocol: as §1, §2, §3, §4, §5
row,"iScore, MHC Class I Molecule A*0201",Sequence
1,0.109,LVELILNHI [Peptide 88]
2,0.122,LVLLGWVSS [Peptide 12]
3,0.218,LYLPRDVLA [Peptide 112]
4,0.093,MHNIRDACR [Peptide 193]
5,0.051,MVTWLKETE [Peptide 153]
6,0.22,NQLAVLPAG [Peptide 51]
7,0.138,NRKGIKKWM [Peptide 189]
8,0.031,NRVLLELNS [Peptide 166]
9,0.088,"PLPDQCPAL [Peptide 29, PLPDQCPAL]"
10,0.075,"PPLAELAAL [Peptide 58, PPLAELAAL]"
11,0.145,PPSLQTSYV [Peptide 175]
12,0.052,QNRSFEGMV [Peptide 96]
13,0.127,QTSYVFLGI [Peptide 177]
14,0.168,RALQGLRRL [Peptide 104]
15,0.08,RDACRDHME [Peptide 195]
16,0.032,RGPAAGDGR [Peptide 4]
17,0.029,RHLDLSNNS [Peptide 119]
18,0.422,RLDEVRAGA [Peptide 65]
19,0.072,RNLTHLESL [Peptide 128]
20,0.189,RSFEGMVVA [Peptide 97]

row,"iScore, MHC Class I Molecule A*0201",Sequence
1,0.045,SASSFSSSA [Peptide 19]
2,0.561,SLQTSYVFL [Peptide 176]
3,0.03,SLRHLDLSN [Peptide 118]
4,0.206,SLVSLTYVS [Peptide 123]
5,0.154,SNASVSAPS [Peptide 83]
6,0.051,SNHFLYLPR [Peptide 110]
7,0.094,SPLVELILN [Peptide 87]
8,0,SPTSSASSF [Peptide 17]
9,0.389,SSAPFLASA [Peptide 22]
10,0.037,SSFSSSAPF [Peptide 20]
11,0.118,SYVFLGIVL [Peptide 178]
12,0.083,TLAELQGLP [Peptide 139]
13,0.037,TSSASSFSS [Peptide 18]
14,0.184,TWLKETEVV [Peptide 154]
15,0.239,VFLDNNPWV [Peptide 145]
16,0.606,"VFLGIVLAL [Peptide 179, VFLGIVLAL]"
17,0.113,VLAQLPSLR [Peptide 115]
18,0.105,VLLELNSAD [Peptide 167]
19,0.081,VLPAGAFAR [Peptide 53]
20,0.095,VLYLNRKGI [Peptide 187]

# Molecular target: MHC class I allele B*0702 (B7) (Homo sapiens, UniProt P01889)
# Assay: iScore multi-parametric analysis, B*0702
# Conditions: level of binding: >0.5, 0.25-0.5, <0.25
# Protocol: as §1
# As part of the validation of the iTopia system, a panel of overlapping peptides derived from the CMV pp 65 protein were used and their binding properties for the A*0201 allele analysed. A number of T cell epitopes restricted by HLA A*0201 had already been identified (by more conventional methodologies) by other researchers for this protein. In the iTopia study, it was reported that an iScore of: >0.5 represented “good quality binding”; between 0.25 and 0.5 represented “medium quality binding”; and <0.25 represented “poor quality binding”.
# as §4
row,"iScore, MHC Class I Molecule B*0702",Sequence
1,0,LVELILNHI [Peptide 88]
2,0,LVLLGWVSS [Peptide 12]
3,0,LYLPRDVLA [Peptide 112]
4,0,MHNIRDACR [Peptide 193]
5,0,MVTWLKETE [Peptide 153]
6,0,NQLAVLPAG [Peptide 51]
7,0,NRKGIKKWM [Peptide 189]
8,0,NRVLLELNS [Peptide 166]
9,0,"PLPDQCPAL [Peptide 29, PLPDQCPAL]"
10,0.145,"PPLAELAAL [Peptide 58, PPLAELAAL]"
11,0,PPSLQTSYV [Peptide 175]
12,0,QNRSFEGMV [Peptide 96]
13,0,QTSYVFLGI [Peptide 177]
14,0.078,RALQGLRRL [Peptide 104]
15,0,RDACRDHME [Peptide 195]
16,0,RGPAAGDGR [Peptide 4]
17,0,RHLDLSNNS [Peptide 119]
18,0.032,RLDEVRAGA [Peptide 65]
19,0,RNLTHLESL [Peptide 128]
20,0,RSFEGMVVA [Peptide 97]

row,"iScore, MHC Class I Molecule B*0702",Sequence
1,0,SASSFSSSA [Peptide 19]
2,0,SLQTSYVFL [Peptide 176]
3,0,SLRHLDLSN [Peptide 118]
4,0,SLVSLTYVS [Peptide 123]
5,0,SNASVSAPS [Peptide 83]
6,0,SNHFLYLPR [Peptide 110]
7,0,SPLVELILN [Peptide 87]
8,0.335,SPTSSASSF [Peptide 17]
9,0,SSAPFLASA [Peptide 22]
10,0,SSFSSSAPF [Peptide 20]
11,0.045,SYVFLGIVL [Peptide 178]
12,0,TLAELQGLP [Peptide 139]
13,0,TSSASSFSS [Peptide 18]
14,0,TWLKETEVV [Peptide 154]
15,0,VFLDNNPWV [Peptide 145]
16,0,"VFLGIVLAL [Peptide 179, VFLGIVLAL]"
17,0,VLAQLPSLR [Peptide 115]
18,0,VLLELNSAD [Peptide 167]
19,0,VLPAGAFAR [Peptide 53]
20,0.164,VLYLNRKGI [Peptide 187]

# Molecular target: MHC class I allele A*0301 (A3) (Homo sapiens, UniProt P04439)
# Assay: iScore multi-parametric analysis, A*0301
# Type: binding
# Conditions: level of binding: >0.5, 0.25-0.5, <0.25
# Protocol: as §1, §2, §3, §4, §5
row,"iScore, MHC Class I Molecule A*0301",Sequence
1,0,LVELILNHI [Peptide 88]
2,0,LVLLGWVSS [Peptide 12]
3,0,LYLPRDVLA [Peptide 112]
4,0,MHNIRDACR [Peptide 193]
5,0,MVTWLKETE [Peptide 153]
6,0,NQLAVLPAG [Peptide 51]
7,0,NRKGIKKWM [Peptide 189]
8,0,NRVLLELNS [Peptide 166]
9,0,"PLPDQCPAL [Peptide 29, PLPDQCPAL]"
10,0,"PPLAELAAL [Peptide 58, PPLAELAAL]"
11,0,PPSLQTSYV [Peptide 175]
12,0,QNRSFEGMV [Peptide 96]
13,0,QTSYVFLGI [Peptide 177]
14,0.027,RALQGLRRL [Peptide 104]
15,0,RDACRDHME [Peptide 195]
16,0,RGPAAGDGR [Peptide 4]
17,0,RHLDLSNNS [Peptide 119]
18,0.057,RLDEVRAGA [Peptide 65]
19,0,RNLTHLESL [Peptide 128]
20,0,RSFEGMVVA [Peptide 97]

row,"iScore, MHC Class I Molecule A*0301",Sequence
1,0,SASSFSSSA [Peptide 19]
2,0,SLQTSYVFL [Peptide 176]
3,0,SLRHLDLSN [Peptide 118]
4,0,SLVSLTYVS [Peptide 123]
5,0,SNASVSAPS [Peptide 83]
6,0.084,SNHFLYLPR [Peptide 110]
7,0,SPLVELILN [Peptide 87]
8,0,SPTSSASSF [Peptide 17]
9,0,SSAPFLASA [Peptide 22]
10,0,SSFSSSAPF [Peptide 20]
11,0,SYVFLGIVL [Peptide 178]
12,0,TLAELQGLP [Peptide 139]
13,0,TSSASSFSS [Peptide 18]
14,0,TWLKETEVV [Peptide 154]
15,0,VFLDNNPWV [Peptide 145]
16,0,"VFLGIVLAL [Peptide 179, VFLGIVLAL]"
17,0.023,VLAQLPSLR [Peptide 115]
18,0,VLLELNSAD [Peptide 167]
19,0.027,VLPAGAFAR [Peptide 53]
20,0.014,VLYLNRKGI [Peptide 187]
